Data: article PMC9698323, “Interaction of Destruxin A with Three Silkworm Proteins: BmCRT, BmDPP3, and BmPDIA5” (Molecules, 2022)
Square brackets hold non-standard residues; d marks the D form. Peptide text beside a SMILES is read from it. dLac(3-vinyl) = C=CC[C@@H](O)C(=O)O; NMeV = CN[C@H](C(=O)O)C(C)C; NMeA = CN[C@@H](C)C(=O)O; βAla = NCCC(=O)O

Columns and labels:
[1] = target: BmPDIA5 (protein disulfide isomerase A5); test: SPR (Biacore 8K), multi-cycle kinetics; type: binding, Bombyx mori; details: 1 × PBSP, 5% DMSO; DA 15.6-250 µmol/L
[2] = target: T1, BmCRT (calreticulin) (Bombyx mori, UniProt Q7Z1E6); test: SPR (Biacore 8K), multi-cycle kinetics; type: binding
T1 construct: gene crt
T1 sequence (Q7Z1E6 20-398): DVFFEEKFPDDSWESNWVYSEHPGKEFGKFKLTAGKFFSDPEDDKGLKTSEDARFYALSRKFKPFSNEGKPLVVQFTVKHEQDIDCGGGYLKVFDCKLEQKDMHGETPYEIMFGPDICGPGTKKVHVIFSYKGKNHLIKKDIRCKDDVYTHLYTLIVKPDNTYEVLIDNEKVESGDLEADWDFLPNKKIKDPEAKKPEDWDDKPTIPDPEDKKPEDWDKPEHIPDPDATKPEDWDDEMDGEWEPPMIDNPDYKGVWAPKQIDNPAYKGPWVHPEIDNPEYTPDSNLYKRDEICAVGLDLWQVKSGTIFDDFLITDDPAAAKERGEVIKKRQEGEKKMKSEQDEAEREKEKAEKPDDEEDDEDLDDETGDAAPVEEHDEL

What does the source list for `C=CC[C@H]1OC(=O)CCNC(=O)[C@H](C)N(C)C(=O)[C@H](C(C)C)N(C)C(=O)[C@H]([C@@H](C)CC)NC(=O)[C@@H]2CCCN2C1=O` [DA, Destruxin A] (cyclo([dLac(3-vinyl)]PI[NMeV][NMeA][βAla]))?
Kd [1]: 92.6 µM; Kd [2]: 198 µM
